In PubChem BioAssay AID743405 (Broad Institute, 2014):
Active and inactive are the calls of the source.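 How the source made its calls: active means signal drops with AC50 under 10 µM, fitted no higher than twice the top valid tested dose; inactive means effect in the opposite direction, plus the rest.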

What was measured:
[1] = toxicity toward NIH3T3 fibroblasts – cell-based, plate reader, dry powder, cytotoxicity control, dose response (AID 743405); details: NIH3T3 viability, CellTiter-Glo ATP luminescence, 48 h; at 35 µM (top of the series)
[2] = tested on: NIH3T3 viability, CellTiter-Glo ATP luminescence, 48 h; test: as above

Row | Compound | activity change, negative = cytotoxicity [1] | AC50 [2]
1 | O=C(NCCc1ccccc1)c1ccc2c(c1)OCCCO2 | 4.4% (inactive) | 
2 | O=C1S/C(=C\c2ccc(N3CCOCC3)o2)C(=O)N1Cc1c(F)cccc1Cl | 92.2% (inactive) | 
3 | O=C(O)c1cccc(COc2ccccc2Cl)c1 | -3.99% (inactive) | 
4 | COc1ccc(CNC(=O)C(c2ccc(C)cc2)N(Cc2cccs2)C(=O)c2ccc3c(c2)OCCO3)cc1 (stereo not drawn) | -4.92% (inactive) | 
5 | O=C(c1n[nH]c(=O)c2ccccc12)N1CCN(C2c3ccccc3-c3ccccc32)CC1 | 8.43% (inactive) | 
6 | Cc1ccc(CNC(=O)CSc2c3c(nc4ccc(Cl)cc24)CCCC3)o1 | 11.2% (inactive) | 
7 | CCOC(=O)Cn1c(S(=O)(=O)Cc2ccccc2Cl)nc(-c2ccccc2)c1-c1ccccc1 | 3.41% (inactive) | 
8 | Cc1cccc(CSc2cccc3cccnc23)c1 |  | > 70 µM (inactive)
9 | COc1ccc(CNC(=O)C(C)n2ccc3cc(S(=O)(=O)N4CCCCCC4)ccc32)cc1 (stereo not drawn) | -0.861% (inactive) | 
10 | COc1ccc(OCc2cccc(C(=O)O)c2)cc1 |  | > 70 µM (inactive)
11 | O=C(CN1C(=O)c2ccccc2S1(=O)=O)c1ccc2c(c1)OCCCO2 | 8.65% (inactive) | 
12 | Cc1cc(C(=O)COC(=O)c2ccccc2O)c(C)n1Cc1cccs1 | -7.18% (inactive) | 
13 | Cc1c(C)c2ccc(OCC(=O)Nc3ccccn3)c(C)c2oc1=O |  | 36.4 µM
14 | CCSc1nnc(NC(=O)c2nc(S(=O)(=O)Cc3ccc(F)cc3)ncc2Cl)s1 | 45.4% (inactive) | 
15 | Cc1nc(SCC(=O)Nc2nc3ccccc3s2)c(C#N)c(C)c1C | -9.06% (inactive) | 
16 | Cc1ccc(C(=O)Nc2cnc3ccccc3c2)cc1 | -0.872% (inactive) | 
17 | COc1ccc(-n2ncc3c(N4CCCCC4)ncnc32)cc1 | -2.9% (inactive) | 
18 | Cc1ccc(-c2cn3cc(C)ccc3n2)cc1 |  | > 70 µM (inactive)
19 | CCN(CC)Cc1c(O)ccc2c1O/C(=C\C=C\c1ccccc1)C2=O | 9.2% (inactive) | 
20 | O=C(NCCc1ccccc1)c1ccc2c(c1)OCCO2 | 5.21% (inactive) | 
21 | O=C(CN1C(=O)c2ccccc2S1(=O)=O)c1ccc(Cl)cc1Cl | 5.03% (inactive) | 
22 | COc1c(CC=C(C)C)cc(C2CC(=O)c3c(O)cc(O)cc3O2)cc1CC=C(C)C (stereo not drawn) |  | 32.9 µM
23 | Cc1cc(S(=O)(=O)NCc2ccncc2)c(C)cc1Br | -1.39% (inactive) | 
